Assay results from article PMC6943437, “Coupling the Antimalarial Cell Penetrating Peptide TP10 to Classical Antimalarial Drugs Primaquine and Chloroquine Produces Strongly Hemolytic Conjugates” (Molecules, 2019).
*1 amine or outer side, *2 acyl side, *3 side chain or, on linkers, in order; H or OH if unused. Where a SMILES comes first, the peptide text is derived from it. The star is where a group is joined. NH(CH2)4NH(7-Cl-4-quinolyl) = Clc1ccc2c(NCCCCN*)ccnc2c1; Suc = O=C(CCC(=O)[*:2])[*:1]

Tested on: P. falciparum W2
Format: cell-based
Details: P. falciparum W2 (CQ-resistant), 48 h, n = 3
Method: All conjugates and their respective parent CPP (Table 1), were screened in vitro for their antiplasmodial activity, using the CQ-resistant P. falciparum W2 strain. The primaquine analogue to 5a, i.e., conjugate 3 where the CPP is TP10, PQ-C4-TP10 (3a), was also included in the study for comparison.
Synchronized ring-stage P. falciparum parasites (W2 strain) were incubated with test compounds for 48 h in Roswell Park Memorial Institute (RPMI) 1640 medium containing 10% human serum or 0.5% Albumax serum substitute. Parasites were then fixed with 1% formaldehyde in phosphate-buffered saline (PBS), pH 7.4, for […] at RT and labeled with YOYO-1 (1 nM; molecular probes) in 0.1% Triton X-100 in PBS. Parasitemias were determined by flow cytometry, from dot plots (forward scatter versus fluorescence). For 50% inhibitory concentration (IC50) determinations, dose-response studies were performed, with the values normalized to percent control activity, and IC50s were calculated using GraphPad Prism, with data fitted by nonlinear regression.

Compound | IC50 [µM]
CC[C@H](C)[C@H](NC(=O)[C@H](CCCCN)NC(=O)[C@H](CCCCN)NC(=O)[C@H](C)NC(=O)[C@H](CC(C)C)NC(=O)[C@H](C)NC(=O)[C@H](C)NC(=O)[C@H](CC(C)C)NC(=O)[C@H](C)NC(=O)[C@H](CCCCN)NC(=O)[C@H](CC(C)C)NC(=O)[C@H](CC(N)=O)NC(=O)[C@@H](NC(=O)[C@H](CCCCN)NC(=O)CNC(=O)[C@H](CC(C)C)NC(=O)[C@H](CC(C)C)NC(=O)[C@H](Cc1ccc(O)cc1)NC(=O)CNC(=O)[C@H](C)NC(=O)[C@H](CO)NC(=O)[C@H](CC(N)=O)NC(=O)[C@H](CC(C)C)NC(=O)[C@@H](NC(=O)[C@H](Cc1c[nH]c2ccccc12)NC(=O)CNC(=O)CCC(=O)NCCCCNc1ccnc2cc(Cl)ccc12)[C@@H](C)O)[C@@H](C)CC)C(=O)N[C@@H](CC(C)C)C(N)=O [5b] | 5.2
CC[C@H](C)[C@H](NC(=O)[C@H](CCCCN)NC(=O)[C@@H](NC(=O)[C@H](CCC(=O)O)NC(=O)[C@H](CCCNC(=N)N)NC(=O)[C@H](CCCCN)NC(=O)[C@@H](NC(=O)[C@H](CCCCN)NC(=O)[C@H](CCCCN)NC(=O)[C@H](CCCCN)NC(=O)[C@H](CCCCN)NC(=O)[C@@H](NC(=O)CCC(=O)NCCCCNc1ccnc2cc(Cl)ccc12)C(C)C)[C@@H](C)CC)[C@@H](C)CC)C(N)=O [5c] ({NH(CH2)4NH(7-Cl-4-quinolyl)-Suc}-VKKKKIKREIKI-NH2) | > 10
CC[C@H](C)[C@H](NC(=O)[C@H](CC(C)C)NC(=O)[C@H](CCCNC(=N)N)NC(=O)[C@H](CCCCN)NC(=O)[C@H](CCC(N)=O)NC(=O)[C@H](CCCNC(=N)N)NC(=O)[C@@H](NC(=O)[C@H](CC(C)C)NC(=O)[C@H](CCCNC(=N)N)NC(=O)[C@H](CCCCN)NC(=O)[C@H](CCC(N)=O)NC(=O)[C@H](CCCNC(=N)N)NC(=O)[C@@H](NC(=O)[C@H](CC(C)C)NC(=O)[C@H](CCCNC(=N)N)NC(=O)[C@H](CCCCN)NC(=O)[C@H](CCC(N)=O)NC(=O)[C@H](CCCNC(=N)N)NC(=O)CCC(=O)NCCCCNc1ccnc2cc(Cl)ccc12)[C@@H](C)CC)[C@@H](C)CC)C(N)=O [5d] ({NH(CH2)4NH(7-Cl-4-quinolyl)-Suc}-RQKRLIRQKRLIRQKRLI-NH2) | > 10
CC[C@H](C)[C@H](NC(=O)[C@H](CCCNC(=N)N)NC(=O)[C@@H](NC(=O)[C@H](C)NC(=O)[C@@H](NC(=O)[C@@H](NC(=O)[C@H](CC(C)C)NC(=O)[C@H](CCCNC(=N)N)NC(=O)[C@@H](NC(=O)CCC(=O)NCCCCNc1ccnc2cc(Cl)ccc12)C(C)C)[C@@H](C)CC)C(C)C)C(C)C)C(=O)N[C@@H](Cc1c[nH]c2ccccc12)C(=O)N[C@@H](CCCNC(=N)N)C(=O)N[C@@H](CCCNC(=N)N)C(N)=O [5e] ({NH(CH2)4NH(7-Cl-4-quinolyl)-Suc}-VRLIVAVRIWRR-NH2) | > 10
N=C(N)NCCC[C@H](NC(=O)CNC(=O)CCC(=O)NCCCCNc1ccnc2cc(Cl)ccc12)C(=O)N[C@@H](CCCCN)C(=O)N[C@@H](CCCCN)C(=O)N[C@@H](CCCNC(=N)N)C(=O)N[C@@H](CCCNC(=N)N)C(=O)N[C@@H](CCC(N)=O)C(=O)N[C@@H](CCCNC(=N)N)C(=O)N[C@@H](CCCNC(=N)N)C(=O)N[C@@H](CCCNC(=N)N)C(=O)N1CCC[C@H]1C(=O)N1CCC[C@H]1C(=O)N[C@@H](CCC(N)=O)C(N)=O [5f] | > 10
CC[C@H](C)[C@H](NC(=O)[C@H](CC(C)C)NC(=O)[C@H](Cc1ccccc1)NC(=O)[C@H](Cc1ccccc1)NC(=O)CCC(=O)NCCCCNc1ccnc2cc(Cl)ccc12)C(=O)N1CCC[C@H]1C(=O)N[C@@H](CCCCN)C(=O)NCC(=O)NCC(=O)N[C@@H](CCCNC(=N)N)C(=O)N[C@@H](CCCCN)C(=O)N[C@@H](CCCCN)C(=O)N[C@@H](CCCNC(=N)N)C(=O)N[C@@H](CCCNC(=N)N)C(=O)N[C@@H](CCC(N)=O)C(=O)N[C@@H](CCCNC(=N)N)C(=O)N[C@@H](CCCNC(=N)N)C(=O)N[C@@H](CCCNC(=N)N)C(=O)N1CCC[C@H]1C(=O)N1CCC[C@H]1C(=O)N[C@@H](CCC(N)=O)C(N)=O [5g] ({NH(CH2)4NH(7-Cl-4-quinolyl)-Suc}-FFLIPKGGRKKRRQRRRPPQ-NH2) | 8.5
N=C(N)NCCC[C@H](NC(=O)[C@H](CCCNC(=N)N)NC(=O)[C@H](CCCNC(=N)N)NC(=O)[C@H](CCCNC(=N)N)NC(=O)[C@H](CCCNC(=N)N)NC(=O)[C@H](CCCNC(=N)N)NC(=O)[C@H](CCCNC(=N)N)NC(=O)[C@H](CCCNC(=N)N)NC(=O)[C@H](CCCNC(=N)N)NC(=O)CCC(=O)NCCCCNc1ccnc2cc(Cl)ccc12)C(N)=O [5h] | > 10
CC[C@H](C)[C@H](NC(=O)[C@H](CCCCN)NC(=O)[C@@H](NC(=O)[C@H](CCC(N)=O)NC(=O)[C@H](CCCNC(=N)N)NC(=O)CCC(=O)NCCCCNc1ccnc2cc(Cl)ccc12)[C@@H](C)CC)C(=O)N[C@@H](Cc1c[nH]c2ccccc12)C(=O)N[C@@H](Cc1ccccc1)C(=O)N[C@@H](CCC(N)=O)C(=O)N[C@@H](CC(N)=O)C(=O)N[C@@H](CCCNC(=N)N)C(=O)N[C@@H](CCCNC(=N)N)C(=O)N[C@@H](CCSC)C(=O)N[C@@H](CCCCN)C(=O)N[C@@H](Cc1c[nH]c2ccccc12)C(=O)N[C@@H](CCCCN)C(=O)N[C@@H](CCCCN)C(N)=O [5i] | > 10
CC[C@H](C)[C@H](NC(=O)[C@H](CCCCN)NC(=O)[C@@H](NC(=O)[C@H](CCC(N)=O)NC(=O)[C@@H](N)CCCNC(=N)N)[C@@H](C)CC)C(=O)N[C@@H](Cc1c[nH]c2ccccc12)C(=O)N[C@@H](Cc1ccccc1)C(=O)N[C@@H](CCC(N)=O)C(=O)N[C@@H](CC(N)=O)C(=O)N[C@@H](CCCNC(=N)N)C(=O)N[C@@H](CCCNC(=N)N)C(=O)N[C@@H](CCSC)C(=O)N[C@@H](CCCCN)C(=O)N[C@@H](Cc1c[nH]c2ccccc12)C(=O)N[C@@H](CCCCN)C(=O)N[C@@H](CCCCN)C(N)=O [Penetratin] | > 10
